Some test systems named below: M14 melanoma; HOP-92 NSCLC; SN12C renal; CCRF-CEM leukemia; HCC-2998 colon; UO-31 renal; K-562 leukemia; OVCAR-4 ovarian; A549 NSCLC.
Test in all cases: growth of human tumour cells (NCI), 48 h

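Results reflect a 48-hour exposure of cells in 96-well plates to compound at five concentrations. The concentration for 50% growth inhibition is given as GI50. TGI is the concentration that stops growth completely.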

Regarding `CCC1CN2CCc3c([nH]c4ccccc34)C2C[C@@H]1CC(=O)N(C)C` (stereo not given in full), the TGI in the assay on M14 melanoma, in the assay with HOP-92 NSCLC, in the assay with SN12C renal, with CCRF-CEM leukemia, with HCC-2998 colon and in the assay on UO-31 renal was greater than 100 µM throughout. In addition, the TGI in the assay on K-562 leukemia, with OVCAR-4 ovarian and with A549 NSCLC was greater than 100 µM each time.

`Cc1ccc(S(=O)(=O)OCC23CCC(CC2)C2CC23)cc1` (stereo not given): the TGI in the assay on M14 melanoma is greater than 100 µM; in the assay with HOP-92 NSCLC, 87.5 µM; in the assay with SN12C renal it was greater than 100 µM; in the assay with CCRF-CEM leukemia it was greater than 100 µM; in the assay on HCC-2998 colon, greater than 100 µM; in the assay on UO-31 renal it was greater than 100 µM. Also, the TGI in the assay on K-562 leukemia, with OVCAR-4 ovarian and with A549 NSCLC was greater than 100 µM each time.

Regarding `CCCCCCCCCCCCCP(=O)(O)OCC`, the TGI in the assay on M14 melanoma, in the assay with HOP-92 NSCLC, in the assay with SN12C renal, with CCRF-CEM leukemia, with HCC-2998 colon and with UO-31 renal was greater than 100 µM in each case. In addition, the TGI in the assay with OVCAR-4 ovarian and with A549 NSCLC was greater than 100 µM throughout.

With `Cc1cccc2c(=O)c3c(sc12)c(NCCNCCO)nc1ccccc13`, the GI50 was 1.68 µM in the assay on M14 melanoma; 1.17 µM with HOP-92 NSCLC; 1.54 µM in the assay with SN12C renal; 1.85 µM with CCRF-CEM leukemia; 1.55 µM in the assay with HCC-2998 colon; 1.09 µM in the assay with UO-31 renal. For the same compound, the GI50 in the assay with OVCAR-4 ovarian was 1.75 µM; in the assay on A549 NSCLC, 1.47 µM. Also, the TGI with M14 melanoma stood at 3.37 µM; with HOP-92 NSCLC, 3.05 µM; in the assay with SN12C renal, 3.05 µM; in the assay on CCRF-CEM leukemia, 3.73 µM; in the assay with HCC-2998 colon, 3.11 µM; in the assay with UO-31 renal, 2.34 µM. Also, the TGI stood at 3.48 µM in the assay on OVCAR-4 ovarian and 3.19 µM with A549 NSCLC.

Take `COC(=O)CCC(=O)CC(=O)C(=O)Nc1c(Cl)cc([N+](=O)[O-])cc1Cl`: the TGI in the assay on M14 melanoma, in the assay on HOP-92 NSCLC, in the assay on SN12C renal, with CCRF-CEM leukemia, in the assay on HCC-2998 colon and in the assay with UO-31 renal was greater than 100 µM throughout. The TGI in the assay on K-562 leukemia, with OVCAR-4 ovarian and with A549 NSCLC was greater than 100 µM throughout.

On to `CC(=O)c1ccc(NC(=O)C(=O)Nn2c(=S)[nH]c3ccccc3c2=O)cc1`, for which the TGI with M14 melanoma, in the assay on HOP-92 NSCLC, in the assay with SN12C renal, with HCC-2998 colon, with UO-31 renal and in the assay with K-562 leukemia was greater than 100 µM each time. Moreover, the TGI with OVCAR-4 ovarian and in the assay on A549 NSCLC was greater than 100 µM in each case.

For `O=C1C2C3C=CC(C2C(=O)N1COP(=O)(O)O)C1C2C(=O)N(COP(=O)(O)O)C(=O)C2C31` (stereo not given), the TGI with M14 melanoma is greater than 100 µM; in the assay on HOP-92 NSCLC, greater than 100 µM; with SN12C renal, greater than 100 µM; in the assay with CCRF-CEM leukemia, greater than 60.7 µM; in the assay on HCC-2998 colon, greater than 100 µM; in the assay on UO-31 renal it was greater than 100 µM. The TGI in the assay on K-562 leukemia, with OVCAR-4 ovarian and in the assay on A549 NSCLC was greater than 100 µM throughout.

On to `CCOC(=O)C1=C(C)N(c2ccc(C)cc2)C2=C(C(=O)N(c3ccccc3)C2c2ccccc2)C1c1ccccc1` (stereo not given), for which the TGI with M14 melanoma, in the assay on SN12C renal, with CCRF-CEM leukemia, in the assay with HCC-2998 colon, in the assay on UO-31 renal and in the assay on K-562 leukemia was greater than 25 µM throughout. Also, the TGI with OVCAR-4 ovarian and in the assay with A549 NSCLC was greater than 25 µM throughout.

On to `COCCCNC(=O)CC(=O)NCCCOC`, for which the TGI in the assay with M14 melanoma, with HOP-92 NSCLC, in the assay on SN12C renal, in the assay on CCRF-CEM leukemia, in the assay with HCC-2998 colon and with UO-31 renal was greater than 100 µM each time. In addition, the TGI in the assay with K-562 leukemia, in the assay on OVCAR-4 ovarian and with A549 NSCLC was greater than 100 µM each time.

`O=[N+]([O-])c1cccc(C2ON2C2CCCCC2)c1` (stereo not given): the TGI stood at 32.4 µM in the assay on M14 melanoma; 89.7 µM in the assay with HOP-92 NSCLC; 36 µM in the assay on SN12C renal; 36.7 µM in the assay with CCRF-CEM leukemia; 30.9 µM in the assay on HCC-2998 colon; 49.7 µM in the assay on UO-31 renal. In addition, the TGI with K-562 leukemia was 60.3 µM; with OVCAR-4 ovarian it was 38.3 µM; in the assay on A549 NSCLC it was 84.5 µM.

With `COc1cc2c3c(c1OC)-c1c(ccc4c1OCO4)CC3(C#N)N(C(=O)c1ccccc1)CC2` (stereo not given), the TGI in the assay with M14 melanoma is greater than 100 µM; with HOP-92 NSCLC it was 77.9 µM; with SN12C renal it was greater than 100 µM; in the assay with CCRF-CEM leukemia it was greater than 100 µM; in the assay with UO-31 renal, greater than 100 µM; with K-562 leukemia, greater than 100 µM. Further, the results for the TGI with OVCAR-4 ovarian and in the assay on A549 NSCLC were 59 µM and greater than 100 µM, respectively.

Consider `O=C(CC1(O)C(=O)Nc2c(Cl)cc(Cl)cc21)c1cccc2ccccc12` (stereo not given), for which the TGI in the assay with M14 melanoma stood at 30.5 µM; with SN12C renal it was 34 µM; with CCRF-CEM leukemia, 41.3 µM; in the assay with K-562 leukemia it was 36.6 µM; with OVCAR-4 ovarian it was 25.4 µM; in the assay on A549 NSCLC it was 29.8 µM.

Regarding `C[C@]1(CO)CCC[C@@]2(C)C1CC[C@H]1CC3C[C@]12CC[C@]3(C)O` (stereo not given in full), the TGI with M14 melanoma, in the assay on HOP-92 NSCLC, in the assay with SN12C renal, in the assay with HCC-2998 colon, with K-562 leukemia and with OVCAR-4 ovarian was greater than 100 µM in each case. Moreover, the TGI with A549 NSCLC was greater than 100 µM.

Take `O=C(Cc1nc2ccccc2s1)Nc1cccc(C(F)(F)F)c1`: the TGI in the assay with M14 melanoma was determined as 31.2 µM; in the assay on SN12C renal, 29.7 µM; in the assay on CCRF-CEM leukemia it was 4.79 µM; in the assay with HCC-2998 colon it was 29.4 µM; with UO-31 renal, 27.6 µM; with K-562 leukemia it was 29.8 µM. Also, the values for the TGI with OVCAR-4 ovarian and with A549 NSCLC were 30.3 µM and 45.4 µM, respectively.

Regarding `Fc1ccccc1C1CC(c2ccc3ccccc3c2)=Nc2ccccc2S1` (stereo not given), the TGI in the assay with M14 melanoma, with SN12C renal, in the assay with CCRF-CEM leukemia, with HCC-2998 colon, with UO-31 renal and with OVCAR-4 ovarian was greater than 100 µM in each case. This compound came in with a TGI in the assay with A549 NSCLC greater than 100 µM.

These data come from PubChem BioAssay (NCI).
